Test system: human T cells
Assay: Treatment of human T cells with K884: central memory differentiation and cytokine production
Type: cell-based
Protocol: Calculate the specific cell lysis as follows: Specific cell lysis=((Sample−BF)/(AF−BF))×100 10) Flow Cytometry 1. Cell Activation • a. Wash cells with 1 ml of culture medium; • b. Centrifuge cells for 5 min at 300 g; • c. Resuspend cells in culture medium; • d. Prepare 2× solutions (negative control with only culture medium, Positive condition with 50 ng/mL of PMA and 500 ng/mL of lonomycin); • e. Plate 100 μL of cell suspension in 96 well plates (U-bottom); • f. Add 100 μL of 2× solutions in appropriate wells; • g. Incubate 4 hours at 37 C, 5% CO2. 2. Extracellular Staining • a. Record cell quantity transfers per tube; • b. Wash cells with 1 mL of PBS+2% FBS; • c. Centrifuge cells for 5 min at 300 g; • d. Empty tubes by inversion; • e. Add the antibodies for extracellular staining; • f. Incubate 20 min at 4° C.; • g. Wash cells with 1 mL of PBS+2% FBS; • h. Centrifuge cells for 5 min at 300 g; • i. Empty tubes by inversion; • j. Ressuspend cells in 100 μL fixation/permeabilisation buffer (eBioscience, #00-5223-56, 1 volume of concentrate buffer+3 volumes of diluent buffer) • k. Incubate 30 min at room temperature or overnight at 4° C. 3. Intracellular Staining • a. Wash cells with 1 mL of permeabilization buffer (eBioscience, #00-8333-56, dilution 1/10 in ddH2O); • b. Centrifuge cells for 5 min at 300 g; • c. Empty tubes by inversion; • d. Add the intracellular antibodies; • e. Incubate 1 hour at 4° C.; • f. Wash cells with 1 mL of permeabilization buffer; • g. Centrifuge cells for 5 min at 300 g; • h. Empty tubes by inversion; • i. Keep tubes at 4° C. shelter from light 4. Human PBMC Isolation by Ficoll • a. Prepare 50 ml tubes; • b. Transfer blood into 50 ml tubes, with maximum of 17.5 ml per tube; • c. Add sterile PBS to dilute blood to reach 35 ml; • d. Use a dropped-in Pasteur pipet used as a tunnel; add 15 ml of Ficoll; • e. Gently install the tubes and centrifuge at 1000 g for 20 min, RT without brakes; • f. Using a 25 ml pipet, harvest the interface ring of PBMC without too much Ficoll and transfer into a 50 ml tube (maximum 15 ml per tube); • g. […]

[1] = 14 days with IL-7 and IL-15, restimulated with PMA and Ionomycin 4 hours

SMILES: CCOC(=O)c1cc2cc(C(F)(F)P(=O)(O)O)c(Br)cc2s1 [Ex. 1, ((6-BROMO-2-(ETHOXYCARBONYL)BENZO[B]THIOPHEN-5-YL)DIFLUOROMETHYL)PHOSPHONATE]
- TNFα secretion [1]: enhancement of the proinflammatory cytokine TNFα secretion
- production of IFNγ [1]: production of IFNγ is maintained
- response of peripheral blood human CD8 T cells to treatment (human CD8 T cells compared to mouse CD8 T cells): respond in equivalent manner to mouse CD8 T cells

Reference: patent US11597739B2, “Enhancing CD8+ T cells for adoptive T cell therapy by inhibiting PTPN1 (PTP1B) and PTPN2 (TC-PTP)” (The Royal Institution for the Advancement of …, priority 2017, dated 2023)
